In patent publication US20080194482A1, “Selective Apac2 Receptor Peptide Agonists” (priority 2005, published 2008):
Square brackets hold non-standard residues; d marks the D form. Peptide text beside a SMILES is read from it. * marks the point of attachment. Orn = NCCC[C@H](N)C(=O)O; Hexanoyl = CCCCCC(=O)*; Aib = CC(C)(N)C(=O)O

Tests used:
human VPAC2 = target: T1, human VPAC2 (Homo sapiens, UniProt P41587); experiment: Alpha screen cAMP assay, in vitro potency at human VPAC2 receptor; assay type: cell-based; conditions: cAMP generation; single result from two analyses in a single run, some values average of more than one experiment
T1 construct: expressed in transfected cells
T1 sequence (P41587 24-438): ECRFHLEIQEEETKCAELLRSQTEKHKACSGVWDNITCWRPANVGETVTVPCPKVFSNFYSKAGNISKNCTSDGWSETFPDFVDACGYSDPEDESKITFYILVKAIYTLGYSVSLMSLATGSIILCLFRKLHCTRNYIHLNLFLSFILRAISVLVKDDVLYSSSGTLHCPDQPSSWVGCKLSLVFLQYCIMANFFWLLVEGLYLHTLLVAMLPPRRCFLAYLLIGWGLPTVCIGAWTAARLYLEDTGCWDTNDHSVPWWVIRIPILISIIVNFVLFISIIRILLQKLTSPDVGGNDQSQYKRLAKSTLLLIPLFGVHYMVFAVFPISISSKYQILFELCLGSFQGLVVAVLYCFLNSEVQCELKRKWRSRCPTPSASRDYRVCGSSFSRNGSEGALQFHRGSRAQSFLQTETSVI
Method: Alpha screen: Cells are washed in the culture flask once with PBS. Then, the cells are rinsed with enzyme free dissociation buffer. The dissociated cells are removed. The cells are then spun down and washed in stimulation buffer. For each data point, 50,000 cells suspended in stimulation buffer are used. To this buffer, Alpha screen acceptor beads are added along with the stimuli. This mixture is incubated for 60 minutes. Lysis buffer and Alpha screen donor beads are added and are incubated for 60 to 120 minutes. The Alpha screen signal (indicative of intracellular cAMP levels) is read in a suitable instrument (e.g. AlphaQuest from Perkin-Elmer). Steps including Alpha screen donor and acceptor beads are performed in reduced light. The EC50 for cAMP generation is calculated from the raw signal or is based on absolute cAMP levels as determined by a standard curve performed on each plate.
Results for each agonist are, at minimum, from two analyses performed in a single run. For some agonists, the results are the mean of more than one run. The tested peptide concentrations are: 10000, 1000, 100, 10, 3, 1, 0.1, 0.01, 0.003, 0.001, 0.0001 and 0.00001 nM.

human VPAC1 = target: T2, human VPAC1 (Homo sapiens, UniProt P32241); experiment: Filter binding assay, 125I-labeled VIP tracer, VPAC1 membranes; conditions: read-out: Human VPAC1 Receptor Binding (IC50; nM)
T2 construct: expressed in transfected cells
T2 sequence (P32241 31-457): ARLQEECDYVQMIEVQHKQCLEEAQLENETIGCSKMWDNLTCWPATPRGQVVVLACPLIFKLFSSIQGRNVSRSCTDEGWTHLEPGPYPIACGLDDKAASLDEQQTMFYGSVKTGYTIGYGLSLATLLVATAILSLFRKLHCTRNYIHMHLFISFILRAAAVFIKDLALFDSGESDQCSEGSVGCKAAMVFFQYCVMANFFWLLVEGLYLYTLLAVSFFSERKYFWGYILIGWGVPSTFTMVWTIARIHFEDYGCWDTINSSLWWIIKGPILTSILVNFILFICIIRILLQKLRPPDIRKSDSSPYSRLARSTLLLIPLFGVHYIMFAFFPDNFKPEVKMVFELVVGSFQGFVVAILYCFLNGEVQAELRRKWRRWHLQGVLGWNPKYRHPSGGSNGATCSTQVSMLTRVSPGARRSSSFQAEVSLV
Method: For this assay, the solutions and equipment include:
Presoak solution: 0.5% Polyethyleneamine in Aqua dest
Buffer for flushing filter plates: 25 mM HEPES pH 7.4
Blocking buffer: 25 mM HEPES pH 7.4; 0.2% protease free BSA
Assay buffer: 25 mM HEPES pH 7.4; 0.5% protease free BSA
Dilution and assay plate: PS-Microplate, U form
Filtration Plate: Multiscreen FB Opaque Plate; 1.0 μM Type B Glasfiber filter
In order to prepare the filter plates, the presoak solution is aspirated by vacuum filtration. The plates are flushed twice with 200 μL flush buffer. 200 μL blocking buffer is added to the filter plate. The filter plate is then incubated with 200 μL presoak solution for 1 hour at room temperature.
The assay plate is filled with 25 μL assay buffer, 25 μL membranes (2.5 μg) suspended in assay buffer, 25 μL compound (agonist) in assay buffer, and 25 μL tracer (about 40000 cpm) in assay buffer. The filled plate is incubated for 1 hour with shaking.
The transfer from assay plate to filter plate is conducted. The blocking buffer is aspirated by vacuum filtration and washed two times with flush buffer. 90 μL is transferred from the assay plate to the filter plate. The 90 μL transferred from assay plate is aspirated and washed three times with 200 μL flush buffer. The plastic support is removed. It is dried for 1 hour at 60° C. 30 μL Microscint is added. The count is performed.

[1] = Rat serum stability (activity remaining, CHO-VPAC2 DiscoveRx read-out); assay type: in vitro ADME
Summary of the method: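 Peptides preincubated overnight in rat serum at 37 °C without aprotinin versus 4 °C with aprotinin, then tested as 11-point 5× dilutions in duplicate on CHO-VPAC2 cells, 30 min at RT. cAMP measured by DiscoveRx kit against standards; EC50 derived for each aliquot.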

rat VPAC2 receptor = target: T3, rat VPAC2 receptor (Rattus norvegicus, UniProt P35000); experiment: DiscoveRx cAMP assay, in vitro potency at rat VPAC2 receptor; assay type: cell-based; conditions: CHO-PO cells transiently transfected with rat VPAC2; cAMP generation; mean of two independent runs
T3 construct: expressed in transfected cells; host or cells: CHO-PO (transient, Lipofectamine)
T3 sequence (P35000 23-437): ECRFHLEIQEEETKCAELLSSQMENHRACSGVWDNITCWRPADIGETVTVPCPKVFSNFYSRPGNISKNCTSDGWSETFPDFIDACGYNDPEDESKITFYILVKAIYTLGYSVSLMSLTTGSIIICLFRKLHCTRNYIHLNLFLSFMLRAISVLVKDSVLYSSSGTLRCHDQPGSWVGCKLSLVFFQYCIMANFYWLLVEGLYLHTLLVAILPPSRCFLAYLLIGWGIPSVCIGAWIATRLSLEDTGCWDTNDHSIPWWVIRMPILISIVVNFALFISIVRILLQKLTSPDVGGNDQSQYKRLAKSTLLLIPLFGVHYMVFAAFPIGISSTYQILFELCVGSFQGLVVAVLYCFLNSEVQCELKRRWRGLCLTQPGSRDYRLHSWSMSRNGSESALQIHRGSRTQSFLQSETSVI
Method: DiscoveRx: CHO-PO cells are transiently transfected with rat VPAC1 or VPAC2 receptor DNA using commercially available transfection reagents (Lipofectamine from Invitrogen). The cells are seeded at a density of 10,000/well in a 96-well plate and are allowed to grow for 3 days in […] culture medium. At day 3, the assay is performed.
On the day of the experiment, the medium is removed. Also, the cells are washed twice. The cells are incubated in assay buffer plus IBMX for 15 minutes at room temperature. Afterwards, the stimuli are added and are dissolved in assay buffer. The stimuli are present for 30 minutes. Then, the assay buffer is gently removed. The cell lysis reagent of the DiscoveRx cAMP kit is added. Thereafter, the standard protocol for developing the cAMP signal as described by the manufacturer is used (DiscoveRx Inc., USA). EC50 values for cAMP generation are calculated from the raw signal or are based on absolute cAMP levels as determined by a standard curve performed on each plate.
Results for each agonist are the mean of two independent runs. Rat VPAC1 and VPAC2 results are only generated using the DiscoveRx assay.

human PAC1 = target: T4, human PAC1 (Homo sapiens, UniProt P41586); experiment: Filter binding assay, 125I-labeled PACAP-27 tracer, PAC1 membranes; conditions: read-out: Human PAC1 Receptor Binding (IC50; nM)
T4 construct: expressed in transfected cells
T4 sequence (P41586 21-468): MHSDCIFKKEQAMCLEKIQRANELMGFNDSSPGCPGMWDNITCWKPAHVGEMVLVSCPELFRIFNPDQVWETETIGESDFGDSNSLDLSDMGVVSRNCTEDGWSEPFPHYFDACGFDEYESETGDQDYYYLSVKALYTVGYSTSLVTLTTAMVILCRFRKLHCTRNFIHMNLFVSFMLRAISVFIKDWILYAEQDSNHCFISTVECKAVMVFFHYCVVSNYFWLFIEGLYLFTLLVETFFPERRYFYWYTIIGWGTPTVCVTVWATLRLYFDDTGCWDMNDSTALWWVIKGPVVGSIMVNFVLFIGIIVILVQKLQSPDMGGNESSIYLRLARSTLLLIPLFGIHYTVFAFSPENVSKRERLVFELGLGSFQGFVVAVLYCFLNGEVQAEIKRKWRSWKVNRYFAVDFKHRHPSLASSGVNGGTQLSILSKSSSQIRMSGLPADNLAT

Row | Compound | EC50 (human VPAC2) [nM] | IC50 (human VPAC1) [nM] | Rat Serum Stability (estimated purity in % after overnight incub.) [1] [%] | EC50 (rat VPAC2 receptor) [nM] | IC50 (human PAC1) [nM]
1 | CCCCCC(=O)N[C@@H](Cc1c[nH]cn1)C(=O)N[C@@H](CO)C(=O)N[C@@H](CC(=O)O)C(=O)N[C@@H](C)C(=O)N[C@H](C(=O)N[C@@H](Cc1ccccc1)C(=O)N[C@H](C(=O)N[C@@H](CC(=O)O)C(=O)N[C@@H](CCC(N)=O)C(=O)N[C@@H](Cc1ccc(O)cc1)C(=O)N[C@H](C(=O)N[C@@H](CCCN)C(=O)N[C@@H](CC(C)C)C(=O)N[C@@H](CCCNC(=N)N)C(=O)NC(C)(C)C(=O)N[C@@H](CCC(N)=O)C(=O)N[C@H](C(=O)N[C@@H](C)C(=O)N[C@@H](C)C(=O)NC(C)(C)C(=O)N[C@@H](CCCCN)C(=O)N[C@@H](Cc1ccc(O)cc1)C(=O)N[C@@H](CC(C)C)C(=O)N[C@@H](CCC(N)=O)C(=O)N[C@@H](CO)C(=O)N[C@H](C(=O)N[C@@H](CCCN)C(=O)N[C@@H](CCC(N)=O)C(=O)N[C@@H](CCCN)C(=O)NCC(=O)NCC(=O)N1CCC[C@H]1C(=O)N[C@@H](CO)C(=O)N[C@@H](CO)C(=O)NCC(=O)N[C@@H](C)C(=O)N1CCC[C@H]1C(=O)N1CCC[C@H]1C(=O)N1CCC[C@H]1C(=O)N[C@@H](CO)C(=O)O)[C@@H](C)CC)C(C)C)[C@@H](C)O)[C@@H](C)O)C(C)C [Agonist P363] (Hexanoyl-HSDAVFTDQYT[Orn]LR[Aib]QVAA[Aib]KYLQSI[Orn]Q[Orn]GGPSSGAPPPS-OH; C-terminus assumed) | 0.27 | > 3000 | 81.66 | 0.09 | > 25000
2 | CCCCCC(=O)N[C@@H](Cc1c[nH]cn1)C(=O)N[C@@H](CO)C(=O)N[C@@H](CC(=O)O)C(=O)N[C@@H](C)C(=O)N[C@H](C(=O)N[C@@H](Cc1ccccc1)C(=O)N[C@H](C(=O)N[C@@H](CC(=O)O)C(=O)N[C@@H](CC(N)=O)C(=O)N[C@@H](Cc1ccc(O)cc1)C(=O)N[C@H](C(=O)N[C@@H](CCCNC(=N)N)C(=O)N[C@@H](CC(C)C)C(=O)N[C@@H](CC(C)C)C(=O)N[C@@H](C)C(=O)N[C@@H](CCCCN)C(=O)N[C@@H](CC(C)C)C(=O)N[C@@H](C)C(=O)N[C@@H](CC(C)C)C(=O)N[C@@H](CCC(N)=O)C(=O)N[C@@H](CCCCN)C(=O)N[C@@H](Cc1ccc(O)cc1)C(=O)N[C@@H](CC(C)C)C(=O)N[C@@H](CCC(N)=O)C(=O)N[C@@H](CO)C(=O)N[C@H](C(=O)N[C@@H](CCCN)C(=O)N[C@@H](CC(N)=O)C(=O)N[C@@H](CCCN)C(=O)NCC(=O)NCC(=O)N1CCC[C@H]1C(=O)N[C@@H](CO)C(=O)N[C@@H](CO)C(=O)NCC(=O)N[C@@H](C)C(=O)N1CCC[C@H]1C(=O)N1CCC[C@H]1C(=O)N1CCC[C@H]1C(=O)N[C@@H](CO)C(=O)O)[C@@H](C)CC)[C@@H](C)O)[C@@H](C)O)C(C)C [Agonist P370] (Hexanoyl-HSDAVFTDNYTRLLAKLALQKYLQSI[Orn]N[Orn]GGPSSGAPPPS-OH; C-terminus assumed) | 0.23 | > 3000 | 41.82 | 0.05 | > 25000
3 | CCCCCC(=O)N[C@@H](Cc1c[nH]cn1)C(=O)N[C@@H](CO)C(=O)N[C@@H](CC(=O)O)C(=O)N[C@@H](C)C(=O)N[C@H](C(=O)N[C@@H](Cc1ccccc1)C(=O)N[C@H](C(=O)N[C@@H](CC(=O)O)C(=O)N[C@@H](CC(N)=O)C(=O)N[C@@H](Cc1ccc(O)cc1)C(=O)N[C@H](C(=O)N[C@@H](CCCN)C(=O)N[C@@H](CC(C)C)C(=O)N[C@@H](CCCNC(=N)N)C(=O)NC(C)(C)C(=O)N[C@@H](CCC(N)=O)C(=O)N[C@H](C(=O)N[C@@H](C)C(=O)N[C@@H](C)C(=O)NC(C)(C)C(=O)N[C@@H](CCCCN)C(=O)N[C@@H](Cc1ccc(O)cc1)C(=O)N[C@@H](CC(C)C)C(=O)N[C@@H](CO)C(=O)N[C@@H](CO)C(=O)N[C@H](C(=O)N[C@@H](CCCN)C(=O)N[C@@H](CC(N)=O)C(=O)N[C@@H](CCCN)C(=O)NCC(=O)NCC(=O)N1CCC[C@H]1C(=O)N[C@@H](CO)C(=O)N[C@@H](CO)C(=O)NCC(=O)N[C@@H](C)C(=O)N1CCC[C@H]1C(=O)N1CCC[C@H]1C(=O)N1CCC[C@H]1C(=O)N[C@@H](CO)C(=O)O)[C@@H](C)CC)C(C)C)[C@@H](C)O)[C@@H](C)O)C(C)C [Agonist P383] (Hexanoyl-HSDAVFTDNYT[Orn]LR[Aib]QVAA[Aib]KYLSSI[Orn]N[Orn]GGPSSGAPPPS-OH; C-terminus assumed) | 0.12 | > 3000 | 113.66 | 0.18 | > 25000
4 | CCCCCC(=O)N[C@@H](Cc1c[nH]cn1)C(=O)N[C@@H](CO)C(=O)N[C@@H](CC(=O)O)C(=O)N[C@@H](C)C(=O)N[C@H](C(=O)N[C@@H](Cc1ccccc1)C(=O)N[C@H](C(=O)N[C@@H](CC(=O)O)C(=O)N[C@@H](CC(N)=O)C(=O)N[C@@H](Cc1ccc(O)cc1)C(=O)N[C@H](C(=O)N[C@@H](CCCN)C(=O)N[C@@H](CC(C)C)C(=O)N[C@@H](CCCNC(=N)N)C(=O)NC(C)(C)C(=O)N[C@@H](CCC(N)=O)C(=O)N[C@H](C(=O)N[C@@H](C)C(=O)N[C@@H](C)C(=O)NC(C)(C)C(=O)N[C@@H](CO)C(=O)N[C@@H](Cc1ccc(O)cc1)C(=O)N[C@@H](CC(C)C)C(=O)N[C@@H](CCC(N)=O)C(=O)N[C@@H](CO)C(=O)N[C@H](C(=O)N[C@@H](CCCN)C(=O)N[C@@H](CC(N)=O)C(=O)N[C@@H](CCCN)C(=O)NCC(=O)NCC(=O)N1CCC[C@H]1C(=O)N[C@@H](CO)C(=O)N[C@@H](CO)C(=O)NCC(=O)N[C@@H](C)C(=O)N1CCC[C@H]1C(=O)N1CCC[C@H]1C(=O)N1CCC[C@H]1C(=O)N[C@@H](CO)C(=O)O)[C@@H](C)CC)C(C)C)[C@@H](C)O)[C@@H](C)O)C(C)C [Agonist P386] (Hexanoyl-HSDAVFTDNYT[Orn]LR[Aib]QVAA[Aib]SYLQSI[Orn]N[Orn]GGPSSGAPPPS-OH; C-terminus assumed) | 0.65 | > 3000 | 71.47 |  | > 25000
